Measured values as given in patent US5288720A, “Angiotensin II receptor blocking 2,3,6 substituted quinazolinones” (American Cyanamid Company, priority 1993, dated 1994).
Each block holds one molecule with its values, some of them ahead of it.

Experiments:
Angiotensin II Receptor = biological target: T1, Angiotensin II Receptor (Bos taurus, UniProt P25104); assay: Receptor Binding Assay: Binding of [^125 I](Sar^1,Ile^8)AngII to beef adrenal cortex membranes; conditions: 60 min, room temperature
T1 construct: The brownish tissue forming the adrenal cortex is scraped off and finely minced with scissors before homogenization; from tissue; host or cells: beef adrenal cortex, microsomal membranes (100,000×g pellet); fresh glands from a local slaughter house (Maxwell-Cohen)
T1 sequence (P25104 1-359): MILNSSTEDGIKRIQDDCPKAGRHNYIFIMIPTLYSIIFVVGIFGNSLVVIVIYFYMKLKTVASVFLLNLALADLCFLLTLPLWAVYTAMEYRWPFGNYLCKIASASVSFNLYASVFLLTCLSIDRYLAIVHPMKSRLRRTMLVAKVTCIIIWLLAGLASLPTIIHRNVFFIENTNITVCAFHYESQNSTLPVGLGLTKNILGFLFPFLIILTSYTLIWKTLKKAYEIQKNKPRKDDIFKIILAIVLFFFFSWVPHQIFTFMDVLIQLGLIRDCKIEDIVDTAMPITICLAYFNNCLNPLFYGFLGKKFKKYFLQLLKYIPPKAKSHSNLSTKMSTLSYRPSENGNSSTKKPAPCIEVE
From the text: Beef adrenals are obtained from a local slaughter house (Maxwell-Cohen). [^125 […]. 2200 Ci/mmole, is purchased from Dupont (NEN®, Boston, Mass.). All unlabeled AngII analogs, Dimethylsulfoxide (DMSO), nucleotides, bovine serum albumin (BSA) are purchased from Sigma Chemical Co., St. Louis, Mo. U.S.A. […] Approximately sixteen (16) to twenty (20) beef adrenal glands are processed as follows: fresh adrenal glands received on crushed ice are cleaned of fatty tissues and the tough membranes encapsulating the glands are removed and discarded. The brownish tissue forming the adrenal cortex is scraped off and finely minced with scissors before homogenization. Care is taken to avoid contamination with medullary tissue during dissection. The scraped cortices are suspended in twenty volumes of an ice-cold buffer medium consisting of 10 mM Tris.HCl (pH 7.4 at 22° C.) and containing 1.0 mM EDTA and 0.2M sucrose. Unless otherwise indicated, all subsequent operations are done at 4° C. […] The homogenate is centrifuged first at low speed (3,000×g) for 10 minutes. […] This P2 pellet is discarded and the liquid phase is carefully decanted off in clean centrifuge tubes and recentrifuged at high speed (100,000×g) for 60 minutes. The translucent final pellet is harvested and combined in a small volume (20-50.0 ml) of 50.0 mM Tris.HCl buffer, pH 7.2. A 100 ul aliquot is withdrawn and the protein content of the preparation is determined by the Lowry's method (Lowry, O. H., Rosebrough, […]. and Randall, R. J., Protein measurement with Folin phenol reagent. J. Biol. Chem., […], 265-275, 1951). The pelleted membrane is reconstituted in 50.0 mM Tris.HCl buffer containing 0.1 mM of phenylmethylsulfonyl fluoride (PMSF) to give approximately a protein concentration of 2.5 mg per ml of tissue suspension. […] Receptor Binding Assay: […] In competition studies, experimental compounds are diluted in dimethylsulfoxide (DMSO) and added in 20 ul to wells before the introduction of tissue membranes. […] Assays are performed in triplicate. The wells are left undisturbed for 60 minutes at room temperature. Following incubation, all wells are harvested at once with a Brandel® Harvester especially designed for a 96 well plate (Brandel® Biomedical Research & Development Labs. Inc., Gaithersburg, Md., U.S.A.). The filter discs are washed with 10×1.0 ml of cold 0.9% NaCl to remove unbound ligand. Presoaking the filter sheet in 0.1% polyethyleneimine in normal saline (PEI/Saline) greatly reduces the radioactivity retained by the filter blanks. This method is routinely used. The filters are removed from the filter grid and counted in a Parkard® Cobra Gamma Counter for 1 minutes. (Packard Instrument Co., Downers Grove, Ill, U.S.A.). The binding data are analyzed by the non-linear interactive "LUNDON-1" program (LUNDON SOFTWARE Inc., Cleveland, Ohio U.S.A.).

[1] = tested on: ANGIOTENSIN II VASOPRESSOR RESPONSE; assay: AII Challenge: blockade of angiotensin II vasopressor response in conscious SHR; type: in vivo, rat (Conscious Male Okamoto-Aoki SHR); conditions: SHR n=2, 3 mg/kg i.v.
From the text: By administering a compound of this invention to a rat, and then challenging with angiotensin II, a blockage of the vasopressor response is realized.
Conscious Male Okamoto-Aoki SHR, 16-20 weeks old, weighing approximately 330 g are purchased from Charles River Labs (Wilmington, Mass.). Conscious rats are restrained in a supine position with elastic tape. The area at the base of the tail is locally anesthetized by subcutaneous infiltration with 2% procaine. The ventral caudal artery and vein are isolated, and a cannula made of polyethylene (PE) 10-20 tubing (fused together by heat) is passed into the lower abdominal aorta and vena cava, respectively. The cannula is secured, heparinized (1,000 I.U./ml), sealed and the wound is closed. The animals are placed in plastic restraining cages in an upright position. The cannula is attached to a Statham P23Db pressure transducer, and pulsatile blood pressure is recorded to 10-15 minutes with a Gould Brush recorder. (Chan et al., (Drug Development Res., 18:75-94, 1989).
Angiotensin II (human sequence, Sigma Chem. Co., St. Louis, MO) of 0.05 and 0.1 ug/kg i.v. is injected into all rats (predosing response). Then a test compound, vehicle or a known angiotensin II antagonist is administered i.v., i.p. or orally to each set of rats. The two doses of angiotensin II are given to each rat again at 30, 60, 90, 120, 180, 240 and 300 minutes post dosing the compound or vehicle. The vasopressor response of angiotensin II is measured for the increase in systolic blood pressure in mmHg. The percentage of antagonism or blockade of the vasopressor response of angiotensin II by a compound is calculated using the vasopressor response (increase in systolic blood pressure) of angiotensin II of each rat predosing the compound as 100%. A compound is considered active if at 30 mg/kg i.v. it antagonized at least 50% of the response.

[2] = AII 0.05 mcg/kg IV, 30 min post dose
[3] = AII 0.05 mcg/kg IV, 60 min post dose
[4] = AII 0.05 mcg/kg IV, 90 min post dose
[5] = AII 0.05 mcg/kg IV, 120 min post dose
[6] = AII 0.05 mcg/kg IV, 180 min post dose
[7] = AII 0.05 mcg/kg IV, 240 min post dose
[8] = AII 0.05 mcg/kg IV, 300 min post dose
[9] = AII 0.1 mcg/kg IV, 30 min post dose
[10] = AII 0.1 mcg/kg IV, 60 min post dose
[11] = AII 0.1 mcg/kg IV, 90 min post dose
[12] = AII 0.1 mcg/kg IV, 120 min post dose
[13] = AII 0.1 mcg/kg IV, 180 min post dose
[14] = AII 0.1 mcg/kg IV, 240 min post dose
[15] = AII 0.1 mcg/kg IV, 300 min post dose

Compound: CCCCc1nc2ccc(C(O)C3CCCCN(C)C3=O)cc2c(=O)n1Cc1ccc(-c2ccccc2-c2nn[nH]n2)cc1 (single isomer, unassigned; isomer 1) [Example 54, 2-Butyl-6-[(hexahydro-1-methyl-2-oxo-1H-azepin-3-yl)hydroxymethyl]-3-[[2'-(1H-tetrazol-5-yl)[1,1'biphenyl]-4-yl]methyl-4-(3H)-quinazolinone isomer 1]
IC50 (Angiotensin II Receptor): 430 nM

Compound: CCCCc1nc2ccc(C(O)C3CCCCN(C)C3=O)cc2c(=O)n1Cc1ccc(-c2ccccc2-c2nn[nH]n2)cc1 (single isomer, unassigned; isomer 2) [Example 55, 2-Butyl-6-[(hexahydro-1-methyl-2-oxo-1H-azepin-3-yl)hydroxymethyl]-3-[[2'-(1H-tetrazol-5-yl)[1,1'-biphenyl]-4-yl]methyl-4(3H)quinazolinone isomer 2]
IC50 (Angiotensin II Receptor): 150 nM

Compound: CCCCc1nc2ccc(C(O)C3CCCS3(=O)=O)cc2c(=O)n1Cc1ccc(-c2ccccc2-c2nn[nH]n2)cc1 (single isomer, unassigned; isomer 2) [Example 16, 2-Butyl-6-[hydroxy(tetrahydro-2-thienyl)methyl-3-[2'-(1H-tetrazol-5-yl)[1,1'biphenyl]-4-yl]methyl]-4(3H)-quinazolinone S, S-dioxide, isomer 2]
IC50 (Angiotensin II Receptor): 110 nM | % Inhibition of AII vasopressor response [1, 2]: 72% | Average Change (systolic blood pressure response to AII) [1, 2]: 12.5 mmHg | % Inhibition of AII vasopressor response [1, 3]: 30% | Average Change (systolic blood pressure response to AII) [1, 3]: 31.5 mmHg | % Inhibition of AII vasopressor response [1, 4]: 61% | Average Change (systolic blood pressure response to AII) [1, 4]: 17.5 mmHg | % Inhibition of AII vasopressor response [1, 5]: 71% | Average Change (systolic blood pressure response to AII) [1, 5]: 13 mmHg | % Inhibition of AII vasopressor response [1, 6]: 39% | Average Change (systolic blood pressure response to AII) [1, 6]: 27.5 mmHg | % Inhibition of AII vasopressor response [1, 7]: 39% | Average Change (systolic blood pressure response to AII) [1, 7]: 27.5 mmHg | % Inhibition of AII vasopressor response [1, 8]: 33% | Average Change (systolic blood pressure response to AII) [1, 8]: 30 mmHg | % Inhibition of AII vasopressor response [1, 9]: 43% | Average Change (systolic blood pressure response to AII) [1, 9]: 20 mmHg | % Inhibition of AII vasopressor response [1, 10]: 64% | Average Change (systolic blood pressure response to AII) [1, 10]: 12.5 mmHg | % Inhibition of AII vasopressor response [1, 11]: 36% | Average Change (systolic blood pressure response to AII) [1, 11]: 22.5 mmHg | % Inhibition of AII vasopressor response [1, 12]: 50% | Average Change (systolic blood pressure response to AII) [1, 12]: 17.5 mmHg | % Inhibition of AII vasopressor response [1, 13]: 14% | Average Change (systolic blood pressure response to AII) [1, 13]: 30 mmHg | % Inhibition of AII vasopressor response [1, 14]: 0% | Average Change (systolic blood pressure response to AII) [1, 14]: 35 mmHg | % Inhibition of AII vasopressor response [1, 15]: -21% | Average Change (systolic blood pressure response to AII) [1, 15]: 42.5 mmHg

Further lines, with some results ahead:

IC50 (Angiotensin II Receptor): 54 nM
Compound: CCCCc1nc2ccc(C(C)(O)C3CCCN(C)C3=O)cc2c(=O)n1Cc1ccc(-c2ccccc2-c2nn[nH]n2)cc1 (single isomer, unassigned; isomer 2) [Example 53, 2-Butyl-6-[1-hydroxy(1-methyl-2-oxo-3-piperidinyl)ethyl]-3-[[2'-(1H-tetrazol-5-yl)[1,1'-biphenyl]-4-yl]methyl]-4(3H)-quinazolinone isomer 2]
% Inhibition of AII vasopressor response [1, 2]: 89% | Average Change (systolic blood pressure response to AII) [1, 2]: 5 mmHg | % Inhibition of AII vasopressor response [1, 3]: 89% | Average Change (systolic blood pressure response to AII) [1, 3]: 5 mmHg | % Inhibition of AII vasopressor response [1, 4]: 58% | Average Change (systolic blood pressure response to AII) [1, 4]: 20 mmHg | % Inhibition of AII vasopressor response [1, 5]: 58% | Average Change (systolic blood pressure response to AII) [1, 5]: 20 mmHg | % Inhibition of AII vasopressor response [1, 6]: 37% | Average Change (systolic blood pressure response to AII) [1, 6]: 30 mmHg | % Inhibition of AII vasopressor response [1, 7]: 58% | Average Change (systolic blood pressure response to AII) [1, 7]: 20 mmHg | % Inhibition of AII vasopressor response [1, 8]: 53% | Average Change (systolic blood pressure response to AII) [1, 8]: 22.5 mmHg | % Inhibition of AII vasopressor response [1, 9]: 76% | Average Change (systolic blood pressure response to AII) [1, 9]: 12.5 mmHg | % Inhibition of AII vasopressor response [1, 10]: 61% | Average Change (systolic blood pressure response to AII) [1, 10]: 20 mmHg | % Inhibition of AII vasopressor response [1, 11]: 76% | Average Change (systolic blood pressure response to AII) [1, 11]: 12.5 mmHg | % Inhibition of AII vasopressor response [1, 12]: 61% | Average Change (systolic blood pressure response to AII) [1, 12]: 20 mmHg | % Inhibition of AII vasopressor response [1, 13]: 42% | Average Change (systolic blood pressure response to AII) [1, 13]: 30 mmHg | % Inhibition of AII vasopressor response [1, 14]: 43% | Average Change (systolic blood pressure response to AII) [1, 14]: 29.5 mmHg | % Inhibition of AII vasopressor response [1, 15]: 17% | Average Change (systolic blood pressure response to AII) [1, 15]: 42.5 mmHg

IC50 (Angiotensin II Receptor): 130 nM
Compound: CCCCc1nc2ccc(C(O)C3CCCO3)cc2c(=O)n1Cc1ccc(-c2ccccc2-c2nn[nH]n2)cc1 (stereo not shown) [Example 28]
